Experimental data published in ChEMBL document CHEMBL1201862, “PubChem BioAssay data set” (2004).
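Growth conditions: 96-well plates. Treatment: test compound, 48 hours, 5 concentrations. Analysis: linear interpolation between bracketing concentrations; unreached endpoints set to highest concentration. The concentration for 50% growth inhibition is given as GI50.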 Calls of active or inactive are those of the source. Rule as the data show it: active = GI50 up to about 1.1 µM and inactive = higher.

Assays:
Assay in all cases: NCI-60 cell line screen, 48 h
[1] = test system: A498
[2] = test system: A549
[3] = test system: BT-549
[4] = test system: CAKI-1
[5] = test system: DU-145
[6] = test system: EKVX
[7] = test system: HCT-15
[8] = test system: Hs-578T
[9] = test system: IGROV-1
[10] = test system: KM12
[11] = test system: LOX IMVI
[12] = test system: MCF7
[13] = test system: Malme-3M
[14] = test system: NCI-H522
[15] = test system: PC-3
[16] = test system: RPMI-8226
[17] = test system: RXF 393
[18] = test system: SK-OV-3
[19] = test system: T47D
[20] = test system: TK-10
[21] = test system: 786-0
[22] = test system: ACHN
[23] = test system: CCRF-CEM
[24] = test system: COLO 205
[25] = test system: HCC 2998
[26] = test system: HL-60
[27] = test system: HOP-62
[28] = test system: HOP-92
[29] = test system: HT-29
[30] = test system: K562
[31] = test system: M14
[32] = test system: MDA-MB-231
[33] = test system: MDA-MB-435
[34] = test system: MDA-N
[35] = test system: MOLT-4
[36] = test system: NCI-H226
[37] = test system: NCI-H23
[38] = test system: NCI-H460
[39] = test system: NCI/ADR-RES
[40] = test system: OVCAR-3
[41] = test system: OVCAR-4
[42] = test system: OVCAR-5
[43] = test system: OVCAR-8
[44] = test system: SF-268
[45] = test system: SF-295
[46] = test system: SF-539
[47] = test system: SK-MEL-28
[48] = test system: SK-MEL-2
[49] = test system: SK-MEL-5
[50] = test system: SNB-19
[51] = test system: SNB-75
[52] = test system: SR
[53] = test system: SW-620
[54] = test system: U-251
[55] = test system: UACC-257
[56] = test system: UACC-62
[57] = test system: UO-31
[58] = test system: HCT-116
[59] = test system: SN12C

In the case of `CN(C)C1C(=O)C(C(N)=O)=C(O)C2(O)C(O)=C3C(=O)c4c(O)cccc4C(C)(O)C3CC12` (configuration not stated), the GI50 [1] is reported as 52.2 µM (inactive), the GI50 [2] is reported as 86.1 µM (inactive) and the GI50 [3] is reported as 64 µM (inactive). For the same molecule, the GI50 [4] was 62.4 µM (inactive), the GI50 [5] was > 100 µM (inactive) and the GI50 [6] was > 100 µM (inactive). For the same molecule, the GI50 [7] was 81.1 µM, the GI50 [8] was 63.4 µM (inactive) and the GI50 [9] was 93.3 µM (inactive). The GI50 [10] was > 100 µM (inactive), the GI50 [11] was 59 µM (inactive) and the GI50 [12] was > 100 µM (inactive). The GI50 [13] was 86.1 µM (inactive), the GI50 [14] was 86.7 µM (inactive) and the GI50 [15] was 76.7 µM (inactive). For the same molecule, the GI50 [16] was 81.7 µM (inactive), the GI50 [17] was 66.5 µM (inactive) and the GI50 [18] was 55.6 µM (inactive). For the same molecule, the GI50 [19] was > 100 µM (inactive) and the GI50 [20] was > 100 µM (inactive).
For `Cc1ccc(S(=O)(=O)n2c3c(c4ccccc42)CCN2CCC(Br)C[C@@H]32)cc1` (some centres not stated), the GI50 [21] was 16.6 µM (inactive), the GI50 [1] was 22.6 µM (inactive) and the GI50 [2] was 16.7 µM (inactive). For the same molecule, the GI50 [22] was 17 µM (inactive), the GI50 [4] was 11.8 µM (inactive) and the GI50 [23] was 12.2 µM (inactive). For the same molecule, the GI50 [24] was 16.3 µM (inactive), the GI50 [5] was 15.1 µM (inactive) and the GI50 [6] was 19.1 µM (inactive). The GI50 [25] was 15 µM (inactive), the GI50 [7] was 12.1 µM and the GI50 [26] was 5.12 µM (inactive). The GI50 [27] was 15 µM (inactive), the GI50 [28] was 18.1 µM (inactive) and the GI50 [29] was 13.3 µM (inactive). The GI50 [8] was 13.7 µM (inactive), the GI50 [9] was 10.1 µM (inactive) and the GI50 [30] was 5.11 µM (inactive). The GI50 [10] was 8.81 µM (inactive), the GI50 [11] was 13.9 µM (inactive) and the GI50 [31] was 12.9 µM (inactive). The GI50 [12] was 9.42 µM (inactive), the GI50 [32] was 16.5 µM (inactive) and the GI50 [33] was 3.79 µM (inactive). The GI50 [34] was 4.42 µM (inactive), the GI50 [35] was 9.73 µM (inactive) and the GI50 [13] was 13.2 µM (inactive). For the same molecule, the GI50 [36] was 13.4 µM (inactive), the GI50 [37] was 11.7 µM (inactive) and the GI50 [38] was 14.9 µM (inactive). For the same molecule, the GI50 [14] was 6.34 µM (inactive), the GI50 [39] was 16.2 µM (inactive) and the GI50 [40] was 11.1 µM (inactive). For the same molecule, the GI50 [41] was 13.1 µM (inactive), the GI50 [42] was 17.3 µM (inactive) and the GI50 [43] was 12.6 µM (inactive). The GI50 [15] was 13.1 µM (inactive), the GI50 [16] was 6.18 µM (inactive) and the GI50 [17] was 12.9 µM (inactive). For the same molecule, the GI50 [44] was 16.1 µM (inactive), the GI50 [45] was 11 µM (inactive) and the GI50 [46] was 16.7 µM (inactive). The GI50 [47] was 11.9 µM (inactive), the GI50 [48] was 16.3 µM (inactive) and the GI50 [49] was 7.74 µM (inactive). The GI50 [18] was 15.7 µM (inactive), the GI50 [50] was 15.4 µM (inactive) and the GI50 [51] was 12.2 µM (inactive). For the same molecule, the GI50 [52] was 5.11 µM (inactive), the GI50 [53] was 12.8 µM (inactive) and the GI50 [19] was 6.11 µM (inactive). The GI50 [20] was 15.6 µM (inactive), the GI50 [54] was 12.4 µM (inactive) and the GI50 [55] was 7.23 µM (inactive). For the same molecule, the GI50 [56] was 11.9 µM (inactive) and the GI50 [57] was 11.9 µM (inactive).
With `COc1cc(-c2c3c(cc4c2OCO4)[C@@H](Nc2ccc(-c4ccc(-c5ccc(N[C@@H]6c7cc8c(cc7C(c7cc(OC)c(O)c(OC)c7)[C@H]7C(=O)OC[C@H]67)OCO8)cc5)cc4)cc2)[C@H]2COC(=O)[C@@H]2C3)cc(OC)c1O` (some centres not stated) the GI50 [21] was 1.76 µM (inactive), the GI50 [1] was 4.62 µM (inactive) and the GI50 [2] was 3.22 µM (inactive). For the same molecule, the GI50 [22] was 2.24 µM (inactive), the GI50 [3] was 2.84 µM (inactive) and the GI50 [4] was 2.65 µM (inactive). For the same molecule, the GI50 [23] was 3.13 µM (inactive), the GI50 [24] was 1.7 µM (inactive) and the GI50 [5] was 1.93 µM (inactive). For the same molecule, the GI50 [6] was 4.51 µM (inactive), the GI50 [58] was 1.73 µM (inactive) and the GI50 [7] was 1.73 µM. For the same molecule, the GI50 [26] was 2.4 µM (inactive), the GI50 [27] was 2.58 µM (inactive) and the GI50 [28] was 4.55 µM (inactive). For the same molecule, the GI50 [29] was 2.31 µM (inactive), the GI50 [8] was 2.6 µM (inactive) and the GI50 [9] was 1.1 µM (active). For the same molecule, the GI50 [10] was 1.85 µM (inactive), the GI50 [11] was 4.13 µM (inactive) and the GI50 [31] was 1.95 µM (inactive). For the same molecule, the GI50 [12] was 2.82 µM (inactive), the GI50 [32] was 2.19 µM (inactive) and the GI50 [33] was 1.69 µM (inactive). For the same molecule, the GI50 [35] was 3.1 µM (inactive), the GI50 [13] was 1.87 µM (inactive) and the GI50 [36] was 2.09 µM (inactive). The GI50 [37] was 5.13 µM (inactive), the GI50 [38] was 3.05 µM (inactive) and the GI50 [39] was 1.85 µM (inactive). The GI50 [40] was 2.36 µM (inactive), the GI50 [42] was 4.39 µM (inactive) and the GI50 [43] was 1.61 µM (inactive). The GI50 [15] was 2.04 µM (inactive), the GI50 [16] was 2.52 µM (inactive) and the GI50 [44] was 2.33 µM (inactive). The GI50 [45] was 1.77 µM (inactive), the GI50 [46] was < 0.01 µM (active) and the GI50 [47] was 1.85 µM (inactive). The GI50 [49] was 2.28 µM (inactive), the GI50 [18] was 2.65 µM (inactive) and the GI50 [59] was 5.21 µM (inactive). For the same molecule, the GI50 [50] was 2.96 µM (inactive), the GI50 [51] was < 0.01 µM (active) and the GI50 [52] was 2.2 µM (inactive). For the same molecule, the GI50 [53] was 2.7 µM (inactive), the GI50 [19] was 4.93 µM (inactive) and the GI50 [20] was 2.38 µM (inactive). The GI50 [54] was 3.09 µM (inactive), the GI50 [55] was 10.6 µM (inactive) and the GI50 [57] was 3.13 µM (inactive).
For `Cc1ccc(C2(c3ccc(C)cc3)SC(=C(C#N)C#N)c3ccccc32)cc1`, the GI50 [21] was > 100 µM (inactive), the GI50 [1] was > 100 µM (inactive) and the GI50 [2] was > 100 µM (inactive). The GI50 [22] was > 100 µM (inactive), the GI50 [3] was > 100 µM (inactive) and the GI50 [23] was 58.3 µM (inactive). For the same molecule, the GI50 [5] was > 100 µM (inactive), the GI50 [6] was > 100 µM (inactive) and the GI50 [25] was 89.7 µM (inactive). For the same molecule, the GI50 [58] was 13.2 µM (inactive), the GI50 [7] was 22.5 µM and the GI50 [26] was 26.3 µM (inactive). For the same molecule, the GI50 [27] was 31.4 µM (inactive), the GI50 [28] was > 100 µM (inactive) and the GI50 [29] was 55.6 µM (inactive). For the same molecule, the GI50 [8] was > 100 µM (inactive), the GI50 [9] was > 100 µM (inactive) and the GI50 [30] was 7.67 µM (inactive). The GI50 [10] was 23 µM (inactive), the GI50 [31] was > 100 µM (inactive) and the GI50 [12] was 81.1 µM (inactive). The GI50 [32] was > 100 µM (inactive), the GI50 [33] was 5.31 µM (inactive) and the GI50 [35] was 21.1 µM (inactive). The GI50 [13] was 87.9 µM (inactive), the GI50 [36] was > 100 µM (inactive) and the GI50 [37] was > 100 µM (inactive). For the same molecule, the GI50 [38] was > 100 µM (inactive), the GI50 [39] was 45.6 µM (inactive) and the GI50 [40] was > 100 µM (inactive). The GI50 [42] was > 100 µM (inactive), the GI50 [43] was > 100 µM (inactive) and the GI50 [15] was 83.9 µM (inactive). The GI50 [17] was > 100 µM (inactive), the GI50 [44] was > 100 µM (inactive) and the GI50 [45] was 97.9 µM (inactive). For the same molecule, the GI50 [46] was > 100 µM (inactive), the GI50 [47] was > 100 µM (inactive) and the GI50 [48] was 2.9 µM (inactive). The GI50 [49] was > 100 µM (inactive), the GI50 [18] was > 100 µM (inactive) and the GI50 [59] was > 100 µM (inactive). The GI50 [50] was > 100 µM (inactive), the GI50 [52] was 27.6 µM (inactive) and the GI50 [53] was 6.75 µM (inactive). The GI50 [19] was > 100 µM (inactive), the GI50 [20] was > 100 µM (inactive) and the GI50 [54] was 18.1 µM (inactive). For the same molecule, the GI50 [56] was 53 µM (inactive) and the GI50 [57] was > 100 µM (inactive).
